Experimental data as given in article PMC2951065 (Journal of Medicinal Chemistry, 2010).
Structures can show the parent of a compound that is named as a salt.

Experiments:
COS 7 cells [1] = assay: Agonist; format: cell-based
PP2Cα = target: T1, PP2Cα (Homo sapiens, UniProt P35813); assay: Selectivity toward other phosphatases: PP2Cα, pNPP; format: biochemical
T1 sequence (P35813 1-382): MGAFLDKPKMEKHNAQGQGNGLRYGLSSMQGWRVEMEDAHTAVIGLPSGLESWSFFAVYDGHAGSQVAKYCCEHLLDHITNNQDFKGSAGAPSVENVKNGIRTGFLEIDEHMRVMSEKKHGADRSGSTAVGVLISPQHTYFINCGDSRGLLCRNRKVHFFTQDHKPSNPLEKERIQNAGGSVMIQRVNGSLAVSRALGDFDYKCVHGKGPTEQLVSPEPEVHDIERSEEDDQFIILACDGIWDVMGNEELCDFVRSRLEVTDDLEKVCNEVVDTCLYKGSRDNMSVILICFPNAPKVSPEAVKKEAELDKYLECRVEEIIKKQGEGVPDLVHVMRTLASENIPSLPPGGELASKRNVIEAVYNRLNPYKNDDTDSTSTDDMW

[2] = target: T2, phosphatase domain of PHLPP2 (Homo sapiens, UniProt Q6ZVD8); assay: In vitro inhibition of PHLPP2 phosphatase domain, pNPP as substrate; format: biochemical; settings: for mechanism (type) of inhibition: with respect to pNPP
T2 sequence (Q6ZVD8 785-1033 limits assumed): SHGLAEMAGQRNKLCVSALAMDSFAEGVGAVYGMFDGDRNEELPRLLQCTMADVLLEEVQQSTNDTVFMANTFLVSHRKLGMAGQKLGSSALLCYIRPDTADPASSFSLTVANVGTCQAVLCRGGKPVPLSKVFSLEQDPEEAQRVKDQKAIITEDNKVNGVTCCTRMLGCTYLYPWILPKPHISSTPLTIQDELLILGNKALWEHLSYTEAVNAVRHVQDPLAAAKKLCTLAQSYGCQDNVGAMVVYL

PP1 = PP1 (Oryctolagus cuniculus, UniProt P62139); assay: Selectivity toward other phosphatases: PP1, pNPP; format: biochemical
COS 7 cells [3] = assay: Apoptosis assay: etoposide-induced cell death, Trypan Blue exclusion; settings: for etoposide-induced increase in apoptotic cells: COS 7, 0.1% FBS
[4] = Precipitation in cell culture medium; format: physicochemical
COS 7 cells [5] = format: cell-based
PP2B/calcineurin = PP2B/calcineurin (Homo sapiens, UniProt Q08209); assay: Selectivity toward other phosphatases: PP2B, pNPP; format: biochemical
[6] = 10-fold higher concentration than 10 μM
[7] = 50 μM pretreatment 30 min, etoposide 24 h
[8] = highest concentration tested (100 μM)

Chain of PP1 (P62139 whole entry): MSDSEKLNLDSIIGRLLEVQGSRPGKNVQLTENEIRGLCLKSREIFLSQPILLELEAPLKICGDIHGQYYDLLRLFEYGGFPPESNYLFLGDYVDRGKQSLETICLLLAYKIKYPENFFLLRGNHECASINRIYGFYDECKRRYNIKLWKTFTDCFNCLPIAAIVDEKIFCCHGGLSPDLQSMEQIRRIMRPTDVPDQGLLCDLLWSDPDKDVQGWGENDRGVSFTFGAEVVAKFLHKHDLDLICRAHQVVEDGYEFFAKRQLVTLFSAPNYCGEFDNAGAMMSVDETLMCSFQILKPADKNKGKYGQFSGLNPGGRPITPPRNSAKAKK
Chain of PP2B/calcineurin (P63098 whole entry, other chains not shown): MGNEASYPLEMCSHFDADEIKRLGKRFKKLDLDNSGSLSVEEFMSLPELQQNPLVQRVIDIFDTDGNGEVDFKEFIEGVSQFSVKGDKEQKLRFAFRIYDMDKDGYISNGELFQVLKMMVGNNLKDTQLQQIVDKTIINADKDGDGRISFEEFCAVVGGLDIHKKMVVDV

Compound: Nc1c(S(=O)(=O)O)cc(Nc2cccc(S(N)(=O)=O)c2)c2c1C(=O)c1ccccc1C2=O [Compound 1, 1-amino-9,10-dioxo-4-(3-sulfamoylanilino)anthracene-2-sulfonic acid, sodium salt]
- phosphorylation of Akt on Ser 473 (HT29 cells; HT29, 5% FBS, 24 h, 100 or 250 μM): increased Akt phosphorylation and activity in cells
- phosphorylation of downstream substrates GSK3 α/β (Ser21/9) and FoxO1/3α (Thr 24/32); Akt activity (HT29 cells; HT29, 24 h, 100 or 250 μM): corresponding increases
- EGF-evoked increase in p308 phosphorylation (COS 7 cells [1]; 50 μM pretreatment, then EGF): approximately 6 fold
- basal phosphorylation at Ser473 compared with DMSO (COS 7 cells [1]; 50 μM, 35 min pretreatment, serum-starved COS 7): significantly higher
- IC50 (PP2Cα): ~100 µM
- effect on PP2Cα activity (PP2Cα; 10 μM compound): no significant effect
- inhibition of PP2Cα (PP2Cα; [6]): approximately 50%
- IC50 [2]: 5.45 ± 0.05 µM
- selectivity for PHLPP over the other phosphatases tested ([2]; vs PP1, PP2B, PP2Cα): over an order of magnitude
- mechanism (type) of inhibition [2]: noncompetitive
- IC50 (PP1): ~100 µM
- effect on PP1 activity (PP1; 10 μM compound): no significant effect
- inhibition of PP1 (PP1; [6]): approximately 50%
- basal level of apoptotic cells (COS 7 cells [3]; 50 μM compound, no etoposide): approximately 12%
- reduction of the magnitude of the etoposide-induced increase in apoptotic cells (COS 7 cells [3]; [7]): approximately 30%
- etoposide-induced increase in apoptotic cells (COS 7 cells [3]; [7]): 2.6 ± 0.3 fold
- concentration at which compound tends to precipitate in the cell culture medium [4]: > 300 µM
- selectivity for Ser473 compared to Thr308 (COS 7 cells [5]): almost 1 order of magnitude
- increase in the phosphorylation of Ser473 (basal Akt) (COS 7 cells [5]; serum-starved COS 7, 35 min): approximately 6 fold
- effect on PP2B activity (PP2B/calcineurin; 10 μM compound): no significant effect
- effect on PP2B activity (PP2B/calcineurin; [8]): neither molecule affected the activity

Compound: COc1ccc(NCc2c(O)ccc3ccccc23)cc1 [Compound 2]
- mechanism (type) of inhibition [2]: Noncompetitive

Compound: COc1cc(NCCC2CCCCN2)c2ncccc2c1 (stereo not drawn) [Compound 4]
- toxicity to cells (HT29 cells; HT29, 24 h): induced cells to detach from culture dishes, reflecting toxicity
- phosphorylation of downstream substrates GSK3 α/β (Ser21/9) and FoxO1/3α (Thr 24/32); Akt activity (HT29 cells; HT29, 24 h, 100 or 250 μM): corresponding increases
- mechanism (type) of inhibition [2]: uncompetitive

Compound: NS(=O)(=O)c1ccc(/N=N/c2ncccc2O)cc1 [Compound 7]
- mechanism (type) of inhibition [2]: Competitive

Compound: Cc1cc(/N=N/c2ccc(/N=N/c3ccc(O)c(C(=O)O)c3)cc2)c(N)cc1N [Compound 13, 1,3-[[4-(2,4-diamino-5-methylphenyl)diazenylphenyl]hydrazinylidene]-6-oxocyclohexa-1,4-diene-1-carboxylic acid]
- IC50 (PP2Cα): ~100 µM
- mechanism (type) of inhibition [2]: noncompetitive
- IC50 (PP1): ~100 µM
- effect on etoposide-induced increase in apoptotic cells (COS 7 cells [3]; [7]): essentially abolished
- modulation of Ser473 phosphorylation (COS 7 cells [5]; cells grown in serum, data not shown): considerably less effective
- increase in the phosphorylation of Ser473 (basal Akt) (COS 7 cells [5]; serum-starved COS 7, 35 min): approximately 4 fold
- sensitivity of phosphorylation of Akt on Thr308 compared with Ser473 (COS 7 cells [5]; serum-starved COS 7, 35 min): not significantly different
- effect on PP2B activity (PP2B/calcineurin; [8]): neither molecule affected the activity

Compound: COc1ccc2nc3cc(Cl)ccc3c(Nc3ccc(C(=O)O)cc3)c2c1 [Compound 24]
- phosphorylation of downstream substrates GSK3 α/β (Ser21/9) and FoxO1/3α (Thr 24/32); Akt activity (HT29 cells; HT29, 24 h, 100 or 250 μM): corresponding increases

Compound: COc1cc([C@@H]2c3cc4c(cc3[C@@H](O[C@@H]3O[C@@H]5CO[C@@H](C)O[C@H]5[C@H](O)[C@H]3O)[C@H]3COC(=O)[C@H]23)OCO4)cc(OC)c1O [Etoposide, etoposide, reference compound]
- etoposide-induced increase in apoptotic cells (COS 7 cells [3]; [7]): 3.4 ± 0.4 fold
